Data on one molecule can be found in PMC4717870, “Evaluation of fluoropyruvate as nucleophile in reactions catalysed by N-acetyl neuraminic acid lyase variants: scope, limitations and stereoselectivity” (Organic & Biomolecular Chemistry, 2015).

The test deals with T1, S. aureus NAL (Staphylococcus aureus, UniProt Q2G160).
T1 construct: gene nanA; crystal structure
Nature of the test: X-ray crystal structure of the complex. Particulars: covalent; Z-configured enamine observed in the active site. The class given is binding.

T1 sequence (Q2G160 whole entry): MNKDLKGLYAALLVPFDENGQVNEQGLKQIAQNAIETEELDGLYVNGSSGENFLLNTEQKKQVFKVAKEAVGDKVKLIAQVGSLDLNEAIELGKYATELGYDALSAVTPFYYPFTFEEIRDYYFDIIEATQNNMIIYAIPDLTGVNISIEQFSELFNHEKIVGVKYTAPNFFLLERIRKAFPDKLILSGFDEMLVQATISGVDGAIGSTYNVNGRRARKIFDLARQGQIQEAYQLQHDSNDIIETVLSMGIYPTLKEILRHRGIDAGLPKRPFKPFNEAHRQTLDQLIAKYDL

In the case of `O=C(O)C(=O)CF` [fluoropyruvate], the “X-ray crystal structure of the complex” value is reported as “the crystal structure of S. aureus NAL was determined in complex with fluoropyruvate”.
